Results published in PubChem BioAssay (NCI).
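96-well plates; 48 h exposure; 5 concentrations. Endpoints by linear interpolation between flanking doses. Not reached: highest tested concentration assigned. The concentration for full growth arrest is given as TGI.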

Legend:
Test in all cases: inhibition of tumour cell growth, NCI panel, 48 h
786-0 renal = system: 786-0 renal
A498 renal = system: A498 renal
A549 NSCLC = system: A549 NSCLC
ACHN renal = system: ACHN renal
BT-549 breast = system: BT-549 breast
CAKI-1 renal = system: CAKI-1 renal
CCRF-CEM leukemia = system: CCRF-CEM leukemia
COLO 205 colon = system: COLO 205 colon
DU-145 prostate = system: DU-145 prostate
EKVX NSCLC = system: EKVX NSCLC
HCC-2998 colon = system: HCC-2998 colon
HCT-116 colon = system: HCT-116 colon
HCT-15 colon = system: HCT-15 colon
HL-60(TB) leukemia = system: HL-60(TB) leukemia
HOP-92 NSCLC = system: HOP-92 NSCLC
HS 578T breast = system: HS 578T breast
HT29 colon = system: HT29 colon
IGROV1 ovarian = system: IGROV1 ovarian
K-562 leukemia = system: K-562 leukemia
KM12 colon = system: KM12 colon
LOX IMVI melanoma = system: LOX IMVI melanoma
M14 melanoma = system: M14 melanoma
MALME-3M melanoma = system: MALME-3M melanoma
MCF7 breast = system: MCF7 breast
MDA-MB-231 breast = system: MDA-MB-231 breast
MDA-MB-435 = system: MDA-MB-435
MDA-N = system: MDA-N
MOLT-4 leukemia = system: MOLT-4 leukemia
NCI-H226 lung = system: NCI-H226 lung
NCI-H23 lung = system: NCI-H23 lung
NCI-H460 lung = system: NCI-H460 lung
NCI-H522 lung = system: NCI-H522 lung
NCI/ADR-RES ovarian = system: NCI/ADR-RES ovarian
OVCAR-3 ovarian = system: OVCAR-3 ovarian
OVCAR-4 ovarian = system: OVCAR-4 ovarian
OVCAR-5 ovarian = system: OVCAR-5 ovarian
OVCAR-8 ovarian = system: OVCAR-8 ovarian
PC-3 prostate = system: PC-3 prostate
RPMI-8226 leukemia = system: RPMI-8226 leukemia
RXF 393 renal = system: RXF 393 renal
SF-268 CNS = system: SF-268 CNS
SF-295 CNS = system: SF-295 CNS
SF-539 CNS = system: SF-539 CNS
SK-MEL-2 melanoma = system: SK-MEL-2 melanoma
SK-MEL-28 melanoma = system: SK-MEL-28 melanoma
SK-MEL-5 melanoma = system: SK-MEL-5 melanoma
SK-OV-3 ovarian = system: SK-OV-3 ovarian
SN12C renal = system: SN12C renal
SNB-19 CNS = system: SNB-19 CNS
SNB-75 CNS = system: SNB-75 CNS
SR leukemia = system: SR leukemia
SW-620 colon = system: SW-620 colon
T-47D breast = system: T-47D breast
TK-10 renal = system: TK-10 renal
U251 CNS = system: U251 CNS
UACC-257 melanoma = system: UACC-257 melanoma
UACC-62 melanoma = system: UACC-62 melanoma
UO-31 renal = system: UO-31 renal
HOP-62 NSCLC = system: HOP-62 NSCLC

Structure (SMILES): O=c1[nH]cc(Cl)c(=O)[nH]1
- TGI (786-0 renal): > 100 µM
- TGI (A498 renal): > 100 µM
- TGI (A549 NSCLC): > 100 µM
- TGI (ACHN renal): > 100 µM
- TGI (BT-549 breast): > 100 µM
- TGI (CAKI-1 renal): > 100 µM
- TGI (CCRF-CEM leukemia): > 100 µM
- TGI (COLO 205 colon): > 100 µM
- TGI (DU-145 prostate): > 100 µM
- TGI (EKVX NSCLC): > 100 µM
- TGI (HCC-2998 colon): > 100 µM
- TGI (HCT-116 colon): > 100 µM
- TGI (HCT-15 colon): > 100 µM
- TGI (HL-60(TB) leukemia): > 100 µM
- TGI (HOP-92 NSCLC): > 100 µM
- TGI (HS 578T breast): > 100 µM
- TGI (HT29 colon): > 100 µM
- TGI (IGROV1 ovarian): > 100 µM
- TGI (K-562 leukemia): > 100 µM
- TGI (KM12 colon): > 100 µM
- TGI (LOX IMVI melanoma): > 100 µM
- TGI (M14 melanoma): > 100 µM
- TGI (MALME-3M melanoma): > 100 µM
- TGI (MCF7 breast): > 100 µM
- TGI (MDA-MB-231 breast): > 100 µM
- TGI (MDA-MB-435): > 100 µM
- TGI (MDA-N): > 100 µM
- TGI (MOLT-4 leukemia): > 100 µM
- TGI (NCI-H226 lung): > 100 µM
- TGI (NCI-H23 lung): > 100 µM
- TGI (NCI-H460 lung): > 100 µM
- TGI (NCI-H522 lung): > 100 µM
- TGI (NCI/ADR-RES ovarian): > 100 µM
- TGI (OVCAR-3 ovarian): > 100 µM
- TGI (OVCAR-4 ovarian): > 100 µM
- TGI (OVCAR-5 ovarian): > 100 µM
- TGI (OVCAR-8 ovarian): > 100 µM
- TGI (PC-3 prostate): > 100 µM
- TGI (RPMI-8226 leukemia): > 100 µM
- TGI (RXF 393 renal): > 100 µM
- TGI (SF-268 CNS): > 100 µM
- TGI (SF-295 CNS): > 100 µM
- TGI (SF-539 CNS): > 100 µM
- TGI (SK-MEL-2 melanoma): > 100 µM
- TGI (SK-MEL-28 melanoma): > 100 µM
- TGI (SK-MEL-5 melanoma): > 100 µM
- TGI (SK-OV-3 ovarian): > 100 µM
- TGI (SN12C renal): > 100 µM
- TGI (SNB-19 CNS): > 100 µM
- TGI (SNB-75 CNS): > 100 µM
- TGI (SR leukemia): > 100 µM
- TGI (SW-620 colon): > 100 µM
- TGI (T-47D breast): > 100 µM
- TGI (TK-10 renal): > 100 µM
- TGI (U251 CNS): > 100 µM
- TGI (UACC-257 melanoma): > 100 µM
- TGI (UACC-62 melanoma): > 100 µM
- TGI (UO-31 renal): > 100 µM

Structure (SMILES): Cc1cc(S(=O)(=O)Nc2nc3ccccc3nc2-c2ccc(Cl)cc2)c(S)cc1Cl
- TGI (786-0 renal): 43.5 µM
- TGI (A498 renal): 30.7 µM
- TGI (A549 NSCLC): 33.6 µM
- TGI (ACHN renal): 34.9 µM
- TGI (BT-549 breast): 50.6 µM
- TGI (CAKI-1 renal): 36.8 µM
- TGI (CCRF-CEM leukemia): 58.1 µM
- TGI (COLO 205 colon): 30.2 µM
- TGI (DU-145 prostate): 29.9 µM
- TGI (EKVX NSCLC): 29.1 µM
- TGI (HCC-2998 colon): 29.1 µM
- TGI (HCT-116 colon): 40.5 µM
- TGI (HCT-15 colon): 42.2 µM
- TGI (HL-60(TB) leukemia): 44.1 µM
- TGI (HOP-62 NSCLC): 46.7 µM
- TGI (HOP-92 NSCLC): 46.9 µM
- TGI (HS 578T breast): 73 µM
- TGI (HT29 colon): 31.4 µM
- TGI (IGROV1 ovarian): 24.9 µM
- TGI (K-562 leukemia): 70.6 µM
- TGI (KM12 colon): 35.4 µM
- TGI (M14 melanoma): 39.5 µM
- TGI (MALME-3M melanoma): 41.4 µM
- TGI (MCF7 breast): 34.1 µM
- TGI (MDA-MB-231 breast): 54 µM
- TGI (MDA-MB-435): 34.5 µM
- TGI (MDA-N): 35.6 µM
- TGI (MOLT-4 leukemia): 42.2 µM
- TGI (NCI-H226 lung): 47.9 µM
- TGI (NCI-H23 lung): 33.4 µM
- TGI (NCI-H460 lung): 29.4 µM
- TGI (NCI-H522 lung): 28.3 µM
- TGI (NCI/ADR-RES ovarian): 36.9 µM
- TGI (OVCAR-3 ovarian): 29.9 µM
- TGI (OVCAR-4 ovarian): 28.2 µM
- TGI (OVCAR-5 ovarian): 33.8 µM
- TGI (OVCAR-8 ovarian): 51.6 µM
- TGI (PC-3 prostate): 34.3 µM
- TGI (RPMI-8226 leukemia): 68.5 µM
- TGI (RXF 393 renal): 46.6 µM
- TGI (SF-268 CNS): 35.3 µM
- TGI (SF-295 CNS): 35 µM
- TGI (SF-539 CNS): 34 µM
- TGI (SK-MEL-2 melanoma): 29.2 µM
- TGI (SK-MEL-28 melanoma): 31 µM
- TGI (SK-MEL-5 melanoma): 27 µM
- TGI (SK-OV-3 ovarian): 31.1 µM
- TGI (SN12C renal): 56.7 µM
- TGI (SNB-19 CNS): 37 µM
- TGI (SR leukemia): 37.8 µM
- TGI (T-47D breast): 32.8 µM
- TGI (TK-10 renal): 63.7 µM
- TGI (U251 CNS): 34 µM
- TGI (UACC-257 melanoma): 44.2 µM
- TGI (UACC-62 melanoma): 25.4 µM
- TGI (UO-31 renal): 30.1 µM
